Reference: patent US20260256922A1, “PRODRUGS USEFUL FOR REDUCING ANTHRACYCLINE CARDIOTOXICITY” (WAKE FOREST UNIVERSITY HEALTH SCIENCES, priority 2022, published 2026)
“Also recorded” adds a separate entry of the source.

Legend:
caspase-3 = experiment: Caspase-3 cleavage immunoblot in H9C2 cells; conditions: 24 h
Procedure: FIG. 6. […] H9C2 cells in culture were treated for 24 hr with c1, c2, DOX or vehicle (DMSO), then harvested into lysis buffer and immunoblotted for caspase-3. Data analyzed by ImageJ were used to assess the percent of the two bands present as the lower band.
We next evaluated apoptotic signaling through caspase-3 cleavage at 24 h to compare the experimental compounds.
To evaluate levels of caspase cleavage (using an antibody recognizing both cleaved and uncleaved, Cell Signaling, cat #9662), Nrf2 (antibody from Thermo Fisher, cat #PA5-27882), and HO-1 (antibody from Proteintech, cat #10701-1-AP), H9C2 cells were plated at a density of 450,000 per well in a 24-well plate, then treated 24 h later with 10 or 20 µM DOX and incubated another 24 h before harvesting. For some samples, 100 mM hydroxocobalamin (HO-Cbl) was added 5 min before drug treatment. Cells were harvested by removing media (and recovering any non-adherent cells by centrifugation for 5 min at 10,600×g, discarding the supernatant), and combining that with the 120 μL of lysis buffer added to each well. Lysis buffer [50 mM Tris-HCl at pH 8.0, with 100 mM NaCl, 100 µM diethylene triamine pentaacetic acid (DTPA), 20 mM β-glycerophosphate, 0.1% SDS, 0.5% Na Desoxycholate, and 0.5% Triton-X-100] was prepared by freshly adding protease and phosphatase inhibitors before use (1 mM PMSF, 10 μg/mL aprotinin, 1 mM Na3VO4, 10 mM NaF and 10 μg/mL leupeptin). Samples were further incubated on ice for 30 min, then centrifuged at high speed (20,800×g for 10 min) to remove cell debris, and supernatants were mixed with 5×SDS protein sample buffer for Western blot analysis following resolution of 40 μg per sample on 10% SDS-polyacrylamide gels. Protein concentrations of supernatants were determined using a BCA assay (Pierce). Antibodies were used at dilutions of 1:1000 (for HO-1 and caspase-3) or 1:3000 (for Nrf2).

[1] = Selectivity of DOX release from c1 towards biological analytes (LCMS); format: physicochemical; conditions: 80 min
Procedure: FIG. 2. Percentage of released DOX from c1 in response to various biological analytes during an 80 min incubation period at room temperature: (1) ammonium bicarbonate buffer (0.1 M, pH 7.5), (2) 10 μM H2O2, (3) 100 μM cysteine, (4) 100 μM homocysteine, (5) 1 mM glutathione, (6) 10 μM glutathione disulfide, (7) 10 µM sodium nitrite, (8) 10 μM sodium hypochlorite, (9) 10 μM superoxide, (10) 10 μM peroxynitrite. A calibration curve was used to determine the concentration of free DOX in response to each analyte. Plotted as the mean±SEM from three independent experiments.
Selectivity of c1. […] After a reaction time of 80 min, an aliquot was removed and analyzed by LCMS. […]
Analyte stock solutions of glutathione (10 mM), oxidized glutathione (10 mM), homocysteine (10 mM), L-cysteine (10 mM), sodium nitrite (NaNO2 10 mM), superoxide (KO2, 10 mM), sodium peroxynitrite (NaOONO, 10 mM), and sodium hypochlorite (NaClO, 10 mM), were prepared in ammonium bicarbonate buffer (0.1 M pH 7.4). […] After reacting for 80 min, a 1 mL (inject volume 60 μL) aliquot was removed and analyzed by LC-MS (using a C18 analytical column and eluting at 0.4 mL/min with a linear gradient (20-90% v/v) MeOH/H2O (0-2 min), followed by 90% v/v MeOH/H2O (2-19 min)). The signals in the chromatogram were recorded at 500 nm and the peak corresponding to free DOX (7.0 min) was integrated.

Nrf2 = Nrf2 and HO-1 immunoblots in H9C2 cells; format: cell-based, rat; conditions: H9C2, relative to DMSO vehicle
Text: The bar graphs below represent the mean±SEM. Results were statistically different between c1 and DOX in both cases (p=0.002 and p=0.019), and more marginally so between c1 and DMSO (p=0.011 and p.=0.025), for Nrf2 and HO-1, respectively.

mitochondrial ROS = experiment: Mitochondrial ROS in cardiomyoblasts; conditions: compared with DOX
[2] = Time-dependent DOX release from prodrugs in presence of H2O2 (LCMS); format: physicochemical; conditions: prodrug 10 μM, H2O2 10 μM, ammonium bicarbonate buffer 0.1 M pH 7.4, room temperature, over two hours
Procedure: FIG. 1. Time-course for DOX release from prodrugs (10 μM) in ammonium bicarbonate buffer (0.1 M, pH 7.4) at room temperature and in the presence of H2O2 (10 μM). A calibration curve was used to determine the concentration of free DOX at each time point by LCMS. Plotted as the mean±standard error of the mean (SEM) from three independent experiments.
To confirm this reactivity, we incubated c1 (10 μM) with H2O2 (10 μM) at room temperature in ammonium bicarbonate buffer (0.1 M, pH 7.4). At various time points, an aliquot was removed and analyzed by LCMS. Using a calibration curve, we determined the percentage of released DOX over the course of two hours. […] For comparison, we also assessed the reactivity of c2 towards the same concentration of peroxides. Like c1, c2 also functioned as an H2O2-activated DOX prodrug, but with faster kinetics, as quantitative release of free DOX was realized within 60 min.
A stock solution of c1 (or c2, 10 mM) in DMSO and H2O2 (10 mM) in ammonium bicarbonate buffer (0.1M, pH 7.4) were prepared immediately prior to use. […] At various time points (0 min, 10 min, 35 min, 60 min, 80 min, 100 min, 120 min), a 1 mL (inject volume 60 μL) aliquot was removed and analyzed by LC-MS (using a C18 analytical column and eluting at 0.4 mL/min with a linear gradient (20-90% v/v) MeOH/H2O (0-2 min), followed by 90% v/v MeOH/H2O (2-19 min)). […]

COc1cccc2c1C(=O)c1c(O)c3c(c(O)c1C2=O)C[C@@](O)(C(=O)CO)C[C@@H]3O[C@H]1C[C@H](NC(=S)OCc2ccc(B3OC(C)(C)C(C)(C)O3)cc2)[C@H](O)[C@H](C)O1 [c1]
caspase-3 cleavage with H2S scavenger hydroxocobalamin (caspase-3; H9C2, 10 μM drug, 100 mM hydroxocobalamin added 5 min prior): much more cleavage of caspase-3 than in its absence | caspase-3 cleavage (caspase-3; H9C2, 10 or 20 μM): neither c1 nor c2 at either 10 or 20 UM caused notable caspase-3 cleavage | free DOX observed by LCMS ([1]; in the presence of H2O2 (10 μM)): significant levels of free DOX | stability (DOX release) ([1]; buffer alone, reductants (cysteine, homocysteine, glutathione), other oxidants (glutathione disulfide, sodium nitrite, sodium hypochlorite, superoxide, peroxynitrite)): relatively stable | HO-1 expression (immunoblot) (Nrf2): largely preserved Nrf2 activation and HO-1 expression; also recorded: only moderately suppressive | Nrf2 activation (immunoblot) (Nrf2): largely preserved Nrf2 activation and HO-1 expression; also recorded: only moderately suppressive | mitochondrial ROS levels (mitochondrial ROS): lower levels of mitochondrial ROS | percentage of released DOX [2]: greater than 70%
